The results in this text go back to PMC8671332 (Journal of cellular biochemistry, 2021).

Each structure is given as a SMILES string.

Assay [1] has as its system plasma membrane Ca2+-ATPase (PMCA; isoform not resolved). Type of assay: cell-based.
In the next assay the target is Na+/K+-ATPase (α1β1) (Sus scrofa, UniProt P05024). Description: biochemical.

What is called IC50 is the concentration that inhibits the measured activity by half. A high value points to lower potency. For the molecule `C[C@@H]1O[C@@H](O[C@H]2CC[C@@]3(C)[C@H](CC[C@@H]4[C@@H]3CC[C@]3(C)[C@@H](C5=CC(=O)OC5)CC[C@]43O)C2)CC[C@H]1O` [compound 2, digitoxigenin-α-L-amiceto-pyranoside], the “% inhibition at 100 nM” value in assay [1] is ~ 25% inhibition at 100. Further, the concentration for half-maximal inhibition (IC50) at Na+/K+-ATPase (α1β1) was 0.041 ± 0.003 µM.

Turning to `C[C@@H]1O[C@@H](O[C@H]2CC[C@@]3(C)[C@H](CC[C@@H]4[C@@H]3CC[C@]3(C)[C@@H](C5=CC(=O)OC5)CC[C@]43O)C2)[C@H](O)[C@H](O)[C@H]1O` [compound 1, digitoxigenin-α-L-rhamno-pyranoside], the IC50 against Na+/K+-ATPase (α1β1) turned out to be 0.012 ± 0.001 µM.
